Data on one compound can be found in patent publication US7060721B1, “Imidazole compounds and medicinal use thereof” (Fujisawa Pharmaceutical Co., Ltd., priority 1998, dated 2006).

For the assay, the system named is db/db mice. The assay can be described thus: Blood sugar level depressing activity in db/db mice. The class given is in vivo. The following applies: female db/db mice; dose 3.2 mg/kg; drug-mixed diet given for 14 days; difference between db/db control group and +/+ mice taken as 100%. Here is the method: (Blood Sugar Level Depressing Activity in db/db Mice)
Female C57BL/KsJ-dbm db+/db+, C57BL/KsJ-dbm +m/+m (Jackson Laboratory) mice (5 weeks old) were purchased and subjected to the test after 2–3 weeks of acclimating period.
The test drug was mixed with a powder diet (CE-2, Clea Japan, Inc.) in a mortar. In the case of administration in 100 mg/kg, the mixing proportion was 0.1%, in the case of 30 mg/kg, the proportion was 0.03% and in the case of 10 mg/kg, the proportion was 0.01%. The diet was changed twice a week for each group. The amount of the diet given and the amount left were recorded and the diet intake was calculated by determining the difference.
The female db/db mice were grouped according to body weight, blood sugar level and triglyceride concentration in plasma. […] The blood sugar value, triglyceride concentration in plasma and insulin concentration in plasma were measured at day 0 and day 14, and blood sugar value and triglyceride concentration in plasma were measured at day 7. Body weight was measured at day 0, day 7 and day 14. […]
Blood sugar value was measured using 10–15 μl of plasma and in accord with glucose oxidase method (glucose CII-Test Wako, Wako Pure Chemicals Co., Ltd.). The triglyceride concentration in plasma was measured using 10–15 μl of plasma and in accord with GPO-p-chlorophenol method (triglyceride G-Test Wako) or GPO-DAOS method (triglyceride E-Test Wako). […]

`Cc1ccc(S(=O)(=O)NC(=O)/C=C/c2c(Cl)nc(C)n2Cc2ccc(-c3ccccc3)cc2Cl)cc1` [Compound A, (E)-3-[4-chloro-1-(2-chloro-4-phenylbenzyl)-2-methylimidazol-5-yl]-N-((4-methylbenzene)sulfonyl)-2-propenamide]: the “Blood sugar decrease (%)” value came to 63%.
